Experimental data: patent publication US20260116921A1, “PEPTIDE INHIBITORS OF INTERLEUKIN-23 RECEPTOR AND THEIR USE TO TREAT INFLAMMATORY DISEASES” (priority 2018, published 2026)
pIC50: −log10 of the molar value. Bridge positions count the residues as written; N and C are the ends. Square brackets hold non-standard residues; d marks the D form. Peptide text beside a SMILES is read from it. Trp(7-Me) = Cc1cccc2c(C[C@H](N)C(=O)O)c[nH]c12; 2Nal = N[C@@H](Cc1ccc2ccccc2c1)C(=O)O; AEF = NCCOc1ccc(C[C@H](N)C(=O)O)cc1; Cit = NC(=O)NCCC[C@H](N)C(=O)O; αMeL = CC(C)C[C@](C)(N)C(=O)O; Pen = CC(C)(S)[C@H](N)C(=O)O; αMeK = C[C@](N)(CCCCN)C(=O)O; Aib = CC(C)(N)C(=O)O; βAla = NCCC(=O)O

Assays:
[1] = test system: NK cells; assay: NK cell based assay (IL-23/IL-18-induced IFNγ, Quantikine ELISA); settings: human primary NK cells, IL-23 at EC50 to EC75 + IL-18 10 ng/mL, IFNγ after 20 to 24 hours
Procedure: killer (NK) cells, purified from human peripheral blood of healthy donors by negative selection (Miltenyi Biotech, Cat #130-092-657), were cultured in complete media (RPMI 1640 containing […], L-glutamine and penicillin-streptomycin) in the presence of IL-2 (RnD, Cat #202-IL-010/CF) at 25 ng/mL. After 7 days, cells were centrifuged, and resuspended in complete media at IE6 cells/mL. […] After 20 to 24 hours, IFNγ in the supernatant was quantified using Quantikine ELISA (RnD, Cat #DIF50).

[2] = target: T1, IL-23R (Homo sapiens, UniProt Q5VWK5); assay: DB cells IL23R pSTAT3 cell assay (pStat3 HTRF); assay type: cell-based; settings: Table E3; DB cells, IL-23 0.5 nM, 30 minutes at 37° C.; read-out: pStat3 HTRF (IC50)
T1 sequence (Q5VWK5 24-629): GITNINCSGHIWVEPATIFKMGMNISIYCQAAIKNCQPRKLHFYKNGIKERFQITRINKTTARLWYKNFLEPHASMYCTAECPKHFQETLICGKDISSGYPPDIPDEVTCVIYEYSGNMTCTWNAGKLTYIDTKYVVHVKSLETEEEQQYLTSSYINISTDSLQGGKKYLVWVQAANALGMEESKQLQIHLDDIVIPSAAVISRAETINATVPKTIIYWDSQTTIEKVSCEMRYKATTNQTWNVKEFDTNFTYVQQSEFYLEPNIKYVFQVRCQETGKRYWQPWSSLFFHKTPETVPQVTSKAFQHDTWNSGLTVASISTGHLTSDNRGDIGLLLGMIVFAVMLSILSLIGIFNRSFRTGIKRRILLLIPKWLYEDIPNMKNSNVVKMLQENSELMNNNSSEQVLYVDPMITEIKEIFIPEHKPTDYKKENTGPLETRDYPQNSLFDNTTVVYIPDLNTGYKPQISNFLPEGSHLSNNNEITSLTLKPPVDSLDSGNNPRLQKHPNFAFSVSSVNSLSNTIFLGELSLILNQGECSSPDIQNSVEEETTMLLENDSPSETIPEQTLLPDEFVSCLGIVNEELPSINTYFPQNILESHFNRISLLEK
How it was run: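 DB cells (5×10E5/well, RPMI-1640 + 10% FBS) stimulated with 0.5 nM final IL-23 plus serially diluted test peptides for 30 min at 37 °C, 5% CO2. Phospho-STAT3 (Tyr705) in lysates measured by HTRF using a two-plate protocol.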

[3] = in vitro; settings: human, 20% fecal homogenate (supernatant), anaerobic, pH 6.8
Procedure: Fecal homogenate (20%) was prepared by adding 4 mL of growth medium (1 liter contains 2 g peptone water powder, 2 g yeast extract, 0.1 g NaCl, 0.04 g KH2PO4, 0.01 g CaCl2·6H2O, 0.01 g MgSO4·7H2O, 2 mL Tween 80, 0.5 g bile salts, 0.5 g L-cysteine HCl, 2 g NaHCO3, and 10 μL Vitamin K, pH adjusted to 6.8, and sterilized by filtration through a 0.22 μm filter) to every gram of feces (pooled freshly collected human or cynomolgus monkey feces). The suspension was vortexed to break up large clumps, and homogenized using a bead mill homogenizer. Centrifuged the homogenate at 2800×g for 15 min. The supernatant is taken out and used for incubations. DMSO stocks (10 mM) were first prepared for the test compounds. Incubations were performed in an anaerobic chamber conditioned at 37° C. Aliquots of the DMSO solutions were dosed into 1.0 mL aliquots of 20% fecal homogenate, which are pre-warmed to 37° C. The final test compound concentration was 20 μM. At each timepoint (0, 20 min, 1, 3, 6, or 24 hours), 100 μL aliquot of each incubation mixture is taken out and added to separate tubes containing 300 μL of 50% acetonitrile/50% methanol and an internal standard to terminate the reaction. Samples were taken out of the anaerobic chamber and stored at 4° C. until the end of the experiment. After the final timepoint is sampled, the tubes were mixed and then centrifuged at 3,000 rpm for 10 minutes. Aliquots of the supernatant were removed, diluted 1:1 into distilled water containing 0.1% formic acid, and analyzed by LC/MS/MS. Percent remaining at each timepoint was calculated based on the peak area response ratio of test to compound to internal standard. Time 0 was set to 100%, and all later timepoints were calculated relative to time 0. Half-lives were calculated by fitting to a first-order exponential decay equation using Graphpad or Excel.

[4] = in vitro; settings: both, SD, rat, plasma (EDTA)
[5] = in vitro; settings: cynomolgus monkey, 20% fecal homogenate (supernatant), anaerobic, pH 6.8
[6] = in vitro; assay type: in vitro ADME; parameters: half-life: dose or concentration left out as unconfirmed; settings: simulated intestinal fluid (SIF) with pancreatin, pH 6.8, 37° C., § matrix is 100 fold dilution of standard SIF concentration, read-out: SIF t½ (converted)
Procedure: SIF was prepared by adding 6.8 g of monobasic potassium phosphate and 10.0 g of pancreatin to 1.0 L of water. After dissolution, the pH was adjusted to 6.8 using NaOH. DMSO stocks (2 mM) were first prepared for the test compounds. Aliquots of the DMSO solutions were dosed into 6 individual tubes, each containing 0.5 mL of SIF, which is pre-warmed to 37° C. The final test compound concentration was 20 M. The vials were kept in a benchtop Thermomixer® for the duration of the experiment. At each timepoint (0, 5, 10, 20, 40, 60, or 360 minutes or 24 hours), 1.0 mL of acetonitrile containing 1% formic acid was added to one vial to terminate the reaction. Samples were stored at 4° C. until the end of the experiment. After the final timepoint is sampled, the tubes were mixed and then centrifuged at 3,000 rpm for 10 minutes. Aliquots of the supernatant were removed, diluted 1:1 into distilled water containing internal standard, and analyzed by LCMS/MS. Percent remaining at each timepoint was calculated based on the peak area response ratio of test to compound to internal standard. Time 0 was set to 100%, and all later timepoints were calculated relative to time 0. Half-lives were calculated by fitting to a first-order exponential decay equation using Graphpad.

CC(=O)NCCCC[C@@H]1NC(=O)[C@H](Cc2c[nH]c3c(C)cccc23)NC(=O)[C@H]([C@@H](C)O)NC(=O)[C@H](CC(N)=O)NC(=O)[C@@H](NC(C)=O)C(C)(C)SSC(C)(C)[C@@H](C(=O)N[C@@H](Cc2ccc(OCCN)cc2)C(=O)N[C@@H](Cc2ccc3ccccc3c2)C(=O)N[C@@](C)(CCCCN)C(=O)N[C@@H](CCCCNC(C)=O)C(=O)N[C@@H](CO)C(=O)NCCC(N)=O)NC1=O [compound 271]
pIC50 [1]: > 8.00 | pIC50 [2]: 8.00 to 9.00 | half-life at 20 μM [3]: > 24 h | half-life at 20 μM [4]: > 24 h | half-life at 20 μM [5]: > 24 h | half-life [6]: 22 h

CC(=O)N[C@@H]1C(=O)N[C@@H](CC(N)=O)C(=O)N[C@@H]([C@@H](C)O)C(=O)N[C@@H](Cc2c[nH]c3c(C)cccc23)C(=O)N[C@@H](CCC(N)=O)C(=O)N[C@H](C(=O)N[C@@H](Cc2ccc(OCCN)cc2)C(=O)N[C@@H](Cc2ccc3ccccc3c2)C(=O)N[C@@](C)(CCCCN)C(=O)N[C@@H](CCC(=O)O)C(=O)N[C@@H](CC(N)=O)C(=O)NCCC(N)=O)C(C)(C)SSC1(C)C [compound 282]
pIC50 [1]: > 8.00 | pIC50 [2]: 8.00 to 9.00 | half-life at 20 μM [3]: > 24 h | half-life at 20 μM [4]: > 24 h | half-life at 20 μM [5]: 22 h

CC(=O)NCCCC[C@H](NC(=O)[C@](C)(CC(C)C)NC(=O)[C@H](Cc1ccc2ccccc2c1)NC(=O)[C@H](Cc1ccc(OCCN)cc1)NC(=O)[C@H]1NC(=O)[C@H](CCC(N)=O)NC(=O)[C@H](Cc2c[nH]c3c(C)cccc23)NC(=O)[C@H]([C@@H](C)O)NC(=O)[C@H](CC(N)=O)NC(=O)[C@@H](NC(C)=O)C(C)(C)SSC1(C)C)C(=O)N(C)[C@@H](C)C(=O)NCCC(N)=O [compound 223]
pIC50 [1]: > 8.00 | pIC50 [2]: < 7.00 | half-life at 20 μM [3]: > 24 h | half-life at 20 μM [4]: 9 h | half-life at 20 μM [5]: > 24 h

CC(=O)NCCCC[C@H](NC(=O)[C@](C)(CCCCN)NC(=O)[C@H](Cc1ccc2ccccc2c1)NC(=O)[C@H](Cc1ccc(OCCN)cc1)NC(=O)[C@H]1NC(=O)[C@H](CCCNC(N)=O)NC(=O)[C@H](Cc2c[nH]c3c(C)cccc23)NC(=O)[C@H]([C@@H](C)O)NC(=O)[C@H](CC(N)=O)NC(=O)[C@@H](NC(C)=O)C(C)(C)SSC1(C)C)C(=O)N[C@@H](CC(N)=O)C(=O)NC(C)(C)C(N)=O [compound 264] (Ac-[Pen]NT[Trp(7-Me)][Cit][Pen][AEF][2Nal][αMeK]K(Ac)N[Aib]-NH2; disulfide 1-6)
pIC50 [1]: > 8.00 | pIC50 [2]: > 9.00 | half-life at 20 μM [3]: > 24 h | half-life at 20 μM [4]: > 24 h | half-life at 20 μM [5]: > 24 h | half-life [6]: 18 h

CC(=O)NCCCC[C@H](NC(=O)[C@](C)(CC(C)C)NC(=O)[C@H](Cc1ccc2ccccc2c1)NC(=O)[C@H](Cc1ccc(OCCN)cc1)NC(=O)[C@H]1NC(=O)[C@H](CCC(N)=O)NC(=O)[C@H](Cc2c[nH]c3c(C)cccc23)NC(=O)[C@H]([C@@H](C)O)NC(=O)[C@H](CC(N)=O)NC(=O)[C@@H](NC(C)=O)C(C)(C)SSC1(C)C)C(=O)N[C@@H](C)C(=O)NCCC(N)=O [compound 207]
pIC50 [1]: > 8.00 | pIC50 [2]: 8.00 to 9.00 | half-life at 20 μM [3]: > 24 h | half-life at 20 μM [4]: 2 h | half-life at 20 μM [5]: > 24 h

CC(=O)NCCCC[C@@H]1NC(=O)[C@@H](NC(C)=O)C(C)(C)SSC(C)(C)[C@@H](C(=O)N[C@@H](Cc2ccc(OCCN)cc2)C(=O)N[C@@H](Cc2ccc3ccccc3c2)C(=O)N[C@@](C)(CCCCN)C(=O)N[C@@H](CCCCNC(C)=O)C(=O)N[C@@H](CC(N)=O)C(=O)NCCC(N)=O)NC(=O)[C@H](CCC(N)=O)NC(=O)[C@H](Cc2c[nH]c3c(C)cccc23)NC(=O)[C@H]([C@@H](C)O)NC1=O [compound 239]
pIC50 [1]: > 8.00 | pIC50 [2]: 8.00 to 9.00 | half-life at 20 μM [3]: > 24 h | half-life at 20 μM [4]: > 24 h | half-life at 20 μM [5]: 7 h

CC(=O)NCCCC[C@H](NC(=O)[C@](C)(CCCCN)NC(=O)[C@H](Cc1ccc2ccccc2c1)NC(=O)[C@H](Cc1ccc(OCCN)cc1)NC(=O)[C@H]1NC(=O)[C@H](CCC(N)=O)NC(=O)[C@H](Cc2cn(C)c3ccccc23)NC(=O)[C@H]([C@@H](C)O)NC(=O)[C@H](CC(N)=O)NC(=O)[C@@H](NC(C)=O)C(C)(C)SSC1(C)C)C(=O)N[C@@H](CC(N)=O)C(=O)NCCC(N)=O [compound 232]
pIC50 [1]: > 8.00 | pIC50 [2]: 8.00 to 9.00 | half-life at 20 μM [3]: > 24 h | half-life at 20 μM [4]: > 24 h | half-life at 20 μM [5]: 10 h

CC(=O)NCCCC[C@H](NC(=O)[C@](C)(CC(C)C)NC(=O)[C@H](Cc1ccc2ccccc2c1)NC(=O)[C@H](Cc1ccc(OCCN)cc1)NC(=O)[C@H]1NC(=O)[C@H](CCC(N)=O)NC(=O)[C@H](Cc2c[nH]c3c(C)cccc23)NC(=O)[C@H]([C@@H](C)O)NC(=O)[C@H](CC(N)=O)NC(=O)[C@@H](NC(C)=O)C(C)(C)SSC1(C)C)C(=O)N[C@@H](CC(C)C)C(=O)NCCC(N)=O [compound 208]
pIC50 [1]: > 8.00 | pIC50 [2]: 8.00 to 9.00 | half-life at 20 μM [3]: > 24 h | half-life at 20 μM [4]: 2 h | half-life at 20 μM [5]: > 24 h

CC(=O)NCCCC[C@H](NC(=O)[C@](C)(CCCCN)NC(=O)[C@H](Cc1ccc2ccccc2c1)NC(=O)[C@H](Cc1ccc(OCCN)cc1)NC(=O)[C@H]1NC(=O)[C@](C)(CC(C)C)NC(=O)[C@H](Cc2c[nH]c3c(C)cccc23)NC(=O)[C@H]([C@@H](C)O)NC(=O)[C@H](CC(N)=O)NC(=O)[C@@H](NC(C)=O)C(C)(C)SSC1(C)C)C(=O)N[C@@H](CC(N)=O)C(=O)NCCC(N)=O [compound 235] (Ac-[Pen]NT[Trp(7-Me)][αMeL][Pen][AEF][2Nal][αMeK]K(Ac)N[βAla]-NH2; disulfide 1-6)
pIC50 [1]: 7.00 to 7.96 | pIC50 [2]: 8.00 to 9.00 | half-life at 20 μM [3]: > 24 h | half-life at 20 μM [4]: 5 h | half-life at 20 μM [5]: > 24 h

CC(=O)NCCCC[C@H](NC(=O)[C@](C)(CC(C)C)NC(=O)[C@H](Cc1ccc2ccccc2c1)NC(=O)[C@H](Cc1ccc(OCCN)cc1)NC(=O)[C@H]1NC(=O)[C@H](CCC(N)=O)NC(=O)[C@H](Cc2c[nH]c3c(C)cccc23)NC(=O)[C@H]([C@@H](C)O)NC(=O)[C@H](CC(N)=O)NC(=O)[C@@H](NC(C)=O)C(C)(C)SSC1(C)C)C(=O)N[C@H](C(=O)NCCC(N)=O)[C@@H](C)O [compound 217]
pIC50 [1]: 7.00 to 7.96 | pIC50 [2]: 8.00 to 9.00 | half-life at 20 μM [3]: > 24 h | half-life at 20 μM [4]: 2 h | half-life at 20 μM [5]: > 24 h

CC(=O)NCCCC[C@H](NC(=O)[C@](C)(CC(C)C)NC(=O)[C@H](Cc1ccc2ccccc2c1)NC(=O)[C@H](Cc1ccc(OCCN)cc1)NC(=O)[C@H]1NC(=O)[C@](C)(CCCCN)NC(=O)[C@H](Cc2c[nH]c3c(C)cccc23)NC(=O)[C@H]([C@@H](C)O)NC(=O)[C@H](CC(N)=O)NC(=O)[C@@H](NC(C)=O)C(C)(C)SSC1(C)C)C(=O)N[C@@H](CC(N)=O)C(=O)NCCC(N)=O [compound 234]
pIC50 [1]: > 8.00 | pIC50 [2]: 8.00 to 9.00 | half-life at 20 μM [3]: > 24 h | half-life at 20 μM [4]: 7 h | half-life at 20 μM [5]: > 24 h

CC(=O)NCCCC[C@H](NC(=O)[C@](C)(CC(C)C)NC(=O)[C@H](Cc1ccc2ccccc2c1)NC(=O)[C@H](Cc1ccc(OCCN)cc1)NC(=O)[C@H]1NC(=O)[C@H](CCC(N)=O)NC(=O)[C@H](Cc2c[nH]c3c(C)cccc23)NC(=O)[C@H]([C@@H](C)O)NC(=O)[C@H](CC(N)=O)NC(=O)[C@@H](NC(C)=O)C(C)(C)SSC1(C)C)C(=O)NCC(=O)NCCC(N)=O [compound 205]
pIC50 [1]: 7.00 to 7.96 | pIC50 [2]: 8.00 to 9.00 | half-life at 20 μM [3]: > 24 h | half-life at 20 μM [4]: 1 h | half-life at 20 μM [5]: > 24 h
